Values quoted from earlier work as cited in EP1358311B1, “CLEANING COMPOSITIONS” (Unilever N.V., priority 2001, dated 2002).

Conditions: for Water Solubility (g/100g): at 20°C, other common materials, listed by contrast

Water Solubility (grams/100 grams water) (saturated solution in 100 grams of deionised water at 20°C, highly water-soluble materials) | Compound | Water Solubility (g/100g)
– | O=BO[O-].[Na+] [Sodium perborate anhydrous] | 3.7
– | O=P(O)(O)OP(=O)(O)OP(=O)(O)O [Sodium tripolyphosphate anhydrous] | 15
>100 | NC(N)=O [Urea] | –
